Experimental data: US20070219268A1, “Anti-cancer activity augmentation compounds and formulations and methods of use thereof” (BioNumerik Pharmaceuticals, Inc., priority 2006, published 2007)
Entries after “also recorded” stand apart in the source; their conditions may differ.

How the values were obtained:
[1] = target: T1, glutathione-S-transferase (GST), m1-1 isotype (Homo sapiens, UniProt P09488); test: GST assay: conjugation of reduced glutathione to CDNB, absorbance at 340 nm; assay type: biochemical; details: difference of relative activity from 100%
T1 construct: purchased
T1 sequence (P09488 1-218): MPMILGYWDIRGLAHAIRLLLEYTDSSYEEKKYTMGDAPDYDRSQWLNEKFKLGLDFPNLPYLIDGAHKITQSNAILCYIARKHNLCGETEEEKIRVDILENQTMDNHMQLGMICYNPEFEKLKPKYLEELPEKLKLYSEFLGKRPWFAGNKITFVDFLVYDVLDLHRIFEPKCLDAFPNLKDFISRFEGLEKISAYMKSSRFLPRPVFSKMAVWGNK
Excerpt: The following experiments were designed to determine if Tavocept™ has an inhibitory or stimulatory effect on GST. […] An in vitro assay for GST has been developed and reported. See, Meyer, D. J. and Ketterer, B., Purification of soluble human glutathione S-transferases. Methods Enzymol. 252:53-65 (1995). This assay monitors the conjugation of reduced glutathione to 1-chloro-2,4-dinitrobenzene (CDNB), as illustrated in Reaction Scheme II, below.
Reduced thiol forms a conjugate with CDNB (extinction coefficient=9600 M^−1 cm^−1), which is detected at 340 nm. Stock solutions of GSH, CDNB, Tavocept™ were prepared by dissolving the reagent in sterile water at the concentrations listed below prior to use. […] Slopes were measured in the linear range of the assay (i.e., typically between 5 to 10 min.). In assays where the effect of Tavocept™ on GST activity was measured, 20 μL of either a 500 mM, 166.7 mM, or 55.6 mM stock solution of Tavocept™ was added to standard reactions using 1 mM GSH as the enzyme substrate. […]
Raw data was obtained on a Cary 100 spectrophotometer. […] No absorbance values were collected during the process of enzyme addition. […] It was during this time that reaction rates (i.e., slopes of change in absorbance with time) were measured using the Cary 100 software. […]

[2] = target: T2, thioredoxin (TRX) (Homo sapiens, UniProt P10599); test: NADPH oxidation at 340 nm by TRR in the presence of TRX; assay type: biochemical
T2 sequence (P10599 1-105): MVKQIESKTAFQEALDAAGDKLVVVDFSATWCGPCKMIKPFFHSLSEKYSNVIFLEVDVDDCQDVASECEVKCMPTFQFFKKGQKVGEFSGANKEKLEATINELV
Method: (§1) The activity of TRR and TRX was determined by following NADPH oxidation at 340 nm according to the previously reported method. See, Luthman, M., and Holmgren, A. Rat liver thioredoxin and thioredoxin reductase: purification and characterization. Biochemistry 21:6628-6633 (1982). A typical assay mixture contained TR buffer (50 mM potassium phosphate, pH 7.0, 1 mM EDTA), 200 μM NADPH, 1.6 μg bovine TRR, and one or more of the following: 4.8 μM TRX, 86 μM insulin, and one of the disulfides described herein. All disulfides were added to reactions as 10× solutions in TR buffer. The total volume of each reaction was 0.1 mL. Reactions were initiated by the addition of TRR and were incubated at 25° C. for 40 min. The activity was calculated using a 4 min. linear portion of each reaction. Enzyme assays were carried out using either a Molecular Devices SpectraMaxPlus UV plate reader or a Varian Cary 100 UV-visible Spectrophotometer.
(§2) Data was then collected and plotted in Microsoft Excel. Error calculations, and graphical representations were performed in Microsoft Excel and Kaleidograph (ver. 3.5). Nonlinear data was graphically rendered using Kaleidograph. ANOVA and other statistical analyses were performed using SAS (ver. 8.2). Unless otherwise noted, significance level was set at 0.05, and error bars represent actual experimental standard deviation.

[3] = target: T3, thioredoxin reductase (TRR) (Bos taurus, UniProt O62768); test: NADPH oxidation at 340 nm by TRR in the absence of TRX; assay type: biochemical, bovine
T3 sequence (O62768 1-499): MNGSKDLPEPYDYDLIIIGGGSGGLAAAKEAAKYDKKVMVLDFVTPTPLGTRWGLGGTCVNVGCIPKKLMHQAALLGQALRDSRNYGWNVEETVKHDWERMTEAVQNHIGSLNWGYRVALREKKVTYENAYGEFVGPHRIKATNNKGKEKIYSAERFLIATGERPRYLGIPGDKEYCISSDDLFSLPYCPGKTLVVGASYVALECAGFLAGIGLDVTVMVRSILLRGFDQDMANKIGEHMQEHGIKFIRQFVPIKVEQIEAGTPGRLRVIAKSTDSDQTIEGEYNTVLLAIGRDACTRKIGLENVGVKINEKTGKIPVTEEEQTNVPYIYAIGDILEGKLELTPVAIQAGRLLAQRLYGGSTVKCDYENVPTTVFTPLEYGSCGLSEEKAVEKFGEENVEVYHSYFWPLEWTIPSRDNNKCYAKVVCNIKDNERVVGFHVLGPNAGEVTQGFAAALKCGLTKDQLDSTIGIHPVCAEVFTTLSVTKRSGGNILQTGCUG
Method: as §1, §2

[4] = target: T4, glutaredoxin (Homo sapiens, UniProt P35754); test: Glutaredoxin assay in the presence of reduced glutathione and glutathione reductase; assay type: biochemical
T4 sequence (P35754 1-106): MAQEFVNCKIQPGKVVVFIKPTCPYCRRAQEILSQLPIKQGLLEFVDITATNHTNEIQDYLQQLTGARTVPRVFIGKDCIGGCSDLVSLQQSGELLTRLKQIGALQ
Excerpt: In addition to the absence of interference with anti-cancer activity, results from in vivo studies have shown that Tavocept™ may elicit the restoration of apoptotic sensitivity in tumor cells through thioredoxin- and glutaredoxin-mediated mechanisms and this may be an important element of its effectiveness as a chemotherapeutic agent.

[5] = based on magnitude and concentration-dependence of oxidation responses

O=S(=O)([O-])CCSSCCS(=O)(=O)[O-].[Na+].[Na+] [Tavocept™, disodium 2,2′-dithio-bis-ethane sulfonate]
Percent Inhibition ([1]; 1.1 mM Tavocept): 5.6%
Percent Inhibition ([1]; 3.3 mM Tavocept): 39%
NADPH oxidation by TRR in the presence of TRX ([2]; 4.8 μM TRX, 200 μM NADPH, 25° C.): concentration-dependent increase
substrate for TRX [2, 5]: most likely a substrate for TRX; also recorded: substrate for thioredoxin
substrate for TRR [3, 5]: not for TRR
NADPH oxidation by TRR in the absence of TRX ([3]; no TRX, 200 μM NADPH, 25° C.): indistinguishable from background
activity with glutaredoxin [4]: substrate-like activity
